Values of other authors, collected in US20220024925A1, “Deuterium-Substituted 7-Substituted-2-(Benzylamino)-6-Ozopurine Compounds and Uses Thereof” (Acurx Pharmaceuticals LLC, priority 2020, published 2022).

Columns and labels:
[1] = test system: other, intestinal Gram-positive anaerobes; settings: stated in words only; see Wright et al., U.S. Pat. No. 8,796,292
[2] = test system: C. diff; settings: stated in words only; see Wright et al., U.S. Pat. No. 8,796,292

Question: Which “activity against other, intestinal Gram-positive anaerobes” value [1] does the source give for `O=c1[nH]c(NCc2ccc(Cl)c(Cl)c2)nc2ncn(CCN3CCOCC3)c12` [Compound I-1, 2-((3,4-dichlorobenzyl)amino)-7-(2-morpholinoethyl)-1,7-dihydro-6H-purin-6-one] here?
Answer: Its value is “weak activity”.

Question: What about the “activity against the growth of the intestinal anaerobe C. diff” value [2] of the same compound?
Answer: The value was “potent activity”.
